Earlier results, collected in patent publication US6676959B1, “Nicotine-containing pharmaceutical compositions giving a rapid transmucosal absorption” (priority 1998, dated 2004).

Conditions: after starting smoking

For `CN1CCCC1c1cccnc1` (stereo not shown) [nicotine], the “Time to peak blood levels of nicotine” value is listed as 5 to 10 min.
